The values that follow come from patent US5877202A, “Indole derivatives useful to treat estrogen-related neoplasms and disorders” (priority 1996, dated 1999).

Where two headings read alike, the source gives them in different places.

As usually defined, the IC50 is the concentration that inhibits the measured activity by half. A low value points to greater potency.

The target of one assay is T1, estrogen receptors (Homo sapiens, UniProt P03372).
T1 construct: estrogen receptor extracted from MCF-7 human breast tumor cells; endogenous in cells; host or cells: MCF-7 human breast cancer cells (nuclear extract, cytosol or whole cell extract)
T1 sequence (P03372 1-595): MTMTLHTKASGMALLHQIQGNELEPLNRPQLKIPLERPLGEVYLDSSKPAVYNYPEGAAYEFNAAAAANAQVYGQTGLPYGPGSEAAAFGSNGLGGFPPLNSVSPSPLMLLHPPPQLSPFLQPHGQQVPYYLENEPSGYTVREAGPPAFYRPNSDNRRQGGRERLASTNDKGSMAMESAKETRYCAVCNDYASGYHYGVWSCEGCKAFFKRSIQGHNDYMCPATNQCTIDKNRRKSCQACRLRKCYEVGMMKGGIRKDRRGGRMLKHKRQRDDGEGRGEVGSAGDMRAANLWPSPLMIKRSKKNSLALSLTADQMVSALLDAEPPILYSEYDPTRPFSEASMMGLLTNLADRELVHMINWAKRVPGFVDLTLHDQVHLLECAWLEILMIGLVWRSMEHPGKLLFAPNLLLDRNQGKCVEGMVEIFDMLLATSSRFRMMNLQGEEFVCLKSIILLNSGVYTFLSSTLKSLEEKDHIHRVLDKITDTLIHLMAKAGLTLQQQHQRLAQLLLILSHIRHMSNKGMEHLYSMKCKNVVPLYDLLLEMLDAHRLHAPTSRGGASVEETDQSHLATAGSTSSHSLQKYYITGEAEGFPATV
Put plainly: Quantification of estrogen receptors in nuclear and whole cell extracts (ER-EIA monoclonal kit), Table 1. Format: cell-based, human (MCF-7 human breast cancer cells). The method, then:
(§1) Monolayers of MCF-7 human breast cancer cells are rinsed once with HBSS and scraped off culture dishes into 15 ml conical tubes with 5 ml HBSS. The cells are sedimented by centrifugation at 250×g for five minutes, suspended in 1 ml HBSS and sedimented by centrifugation at 2000 rpm in a tabletop centrifuge for five minutes in a 1.5 ml microfuge tube. Two PCV of a solution of a lysis buffer (25 mM HEPES, pH 7.8, 50 mM KCl, 0.5% Nonidet P 40, 2 mM dithiothreitol, 0.2 mM phenylmethylsulfonyl fluoride, 0.05 mg/ml leupeptin, 0.05 mg/ml aprotinin, 0.0025 mg/ml pepstatin, 0.005 mg/ml antipain) are added and cells are kept on ice for 15 minutes. Lysed cells are centrifuged for 3 minutes at 10,000×g, supernatant decanted, and kept as the cytosol fraction. Pellets are suspended in two PCV of extraction buffer (25 mM HEPES, pH 7.8, 500 mM KCl, 10% glycerol, 2 mM dithiothreitol and the above protease inhibitors), mixed for 20 minutes by inversion at 4 degrees C. and centrifuged at 10,000×g for 20 minutes. The supernatant is decanted and saved as nuclear extract. Both the nuclear extract and the cytosol are dialyzed for two hours against dialysis buffer (25 mM HEPES, pH 7.8, 50 mM KCl, 10% glycerol, 2 mM dithiothreitol and the above protease inhibitors). Nuclear and cytosol fractions are stored frozen at -80 degrees C. until used for mobility shift assays or determination of estrogen receptor content.
Whole cell extracts of tumor cells are prepared by the method of Reese and Katzenellenbogen, Nuc. Acids Res., 19: 6595-6602 (1991), with some modifications. Cell monolayers are rinsed once with HBSS, then scraped into HBSS and sedimented by centrifugation (5 min., 250×g). After resuspending in 1 mL HBSS, the cells are again sedimented at 250×g for 5 min at 4° C. The cell pellet is resuspended in lysis/extract buffer containing 20 mM Tris, pH 7.5, 10% glycerol (v/v), 0.5M sodium chloride and 0.5% NP-40 (v/v) and incubated on ice for 25 minutes, then the supernatants are dialyzed against 25 mM HEPES, pH 7.8, 10% glycerol (v/v), 0.5 mM dithiothreitol and 50 mM potassium chloride for 2 hours at 4° C. Both the lysis/extraction and the dialysis buffers contain protease inhibitors which included 0.5 mM phenylmethylsulfonylfluoride, 0.05 mg/mL leupeptin, 0.05 mg/mL aprotinin, 0.00-25 mg/mL pepstatin, and 0.005 mg/mL antipain. Dialyzed whole cell extracts are stored in aliquots at -80° C. until used.
The protein concentration for nucleus and cytosol fractions are determined with a BIO-RAD kit, according to the manufacturer's instructions.
Estrogen receptor levels in nuclear and whole cell extracts of tumor cells were quanitated using the ER-EIA monoclonal kit manufactured by Abbott Laboratories (Diagnostic Division) according to the kit instructions.
receptors in nuclear extracts.
.dagger.WCE refers to IC50 value for estrogen receptors in whole cel
A slash dividing two numbers indicates the results of two separate

The target of assay [1] is T2, estrogen receptor binding to an estrogen response element (Homo sapiens, UniProt P03372).
T2 construct: estrogen receptor extracted from MCF-7 human breast tumor cells; endogenous in cells; host or cells: MCF-7 human breast cancer cells (nuclear extract, cytosol or whole cell extract)
T2 sequence (P03372 1-595): T1 sequence (P03372 1-595)
Put plainly: Inhibition of estrogen receptor binding to an estrogen response element in DNA mobility shift assays. The conditions noted are these: read-out: integrated volume of shifted ERE oligo as percentage of control, given as % inhibition. It counts as biochemical, human (nuclear extract of MCF-7 human breast cancer cells). The method, then:
as §1
Briefly, to each reaction tube was added 0.01 mg nuclear extract, 2 μg poly dIdC, 50 mM NaCl, 1 mM dithiothreitol and 10 mM Tris, pH 7.5 in a total volume of 0.01 ml and the mixture was kept at room temperature for 10 minutes. A ^32 P-labelled estrogen response element [ERE]

For another assay, the target named is T3, MCF-7 estrogen receptor (Homo sapiens, UniProt P03372).
T3 construct: estrogen receptor extracted from MCF-7 human breast tumor cells; endogenous in cells; host or cells: MCF-7 human breast cancer cells (nuclear extract, cytosol or whole cell extract)
T3 sequence (P03372 1-595): T1 sequence (P03372 1-595)
Put plainly: Competitive binding assay, Relative Binding Affinities on binding of estradiol to MCF-7 estrogen receptor. The protocol: Briefly, RBAs are determined from competitive binding assays with several concentrations of estradiol (E2) with and without test compound. After 16-18 hours of incubation at 4 degrees C., unbound [^3 H] E2 is separated from ER-bound [^3 H] E2. The IC50 is determined and the RBA is calculated as: […]

In another assay the test system is GAPDH mRNA. In words: GAPDH mRNA levels in treated MCF-7 human breast tumor cells (positive control probe).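 Further: Phosphoimager intensity of radioactive mRNA bands.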 The conditions noted are these: 30 μM, 24 hr. Format: cell-based. The protocol:
(§2) After treatment with 30 μM drug for 24 hr, total RNA is isolated according to the guanidinium isothiocyanate method using an RNA preparation kit from 5 Prime-3 Prime, Inc., following the manufacturer's instructions. The RNA is separated by formaldehyde gel electrophoresis and transferred to a nylon membrane.

The next assay has as its system estrogen receptor mRNA. In words: Reduction of estrogen receptor mRNA levels in treated MCF-7 human breast tumor cells.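 On Estrogen Receptor mRNA band intensity: Phosphoimager intensity of radioactive mRNA bands.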 The note with it: 30 μM, 24 hr. It counts as cell-based. The protocol: as §2
Where [2] appears, read: estrogen receptors in nuclear extracts.
The mark [3] stands for this setting: WCE: estrogen receptors in whole cell extracts.

With `CCCCN(C)C(=O)CCCCCCCNC(=O)Cc1c(-c2ccc(F)cc2)n(Cc2ccccc2)c2ccc(O)cc12` [MDL 103,970, 8-[[5-Hydroxy-1-benzyl-2-(4-fluorophenyl)-1H-indol-3-yl]-acetylamino]-octanoic acid methyl-butyl-amide], the IC50 against estrogen receptors (setting [2]) was found to be 16 µM.

As for `CCCCN(C)C(=O)CCCCCCCNC(=O)Cc1c(C)n(C(=O)c2ccccc2)c2ccc(O)cc12` [MDL 105,813, 8-[[5-Hydroxy-1-benzoyl-2-methyl-1H-indol-3-yl]-acetylamino]-octanoic acid methyl-butyl-amide], the inhibition at 2 µM in assay [1] (2 μM) stood at 7.6%. Moreover, the inhibition at 5 µM in assay [1] (5 μM) was 60%. Besides, the inhibition at 10 µM in assay [1] (10 μM) stood at 84%. The inhibition at 20 µM in assay [1] (20 μM) is 33%. Further, the inhibition at 30 µM in assay [1] (30 μM) was 30%. Further, the “inhibition of estradiol binding to MCF-7 ER” value at MCF-7 estrogen receptor (doses of 100 or 200 nM) was “did not significantly inhibit”; at MCF-7 estrogen receptor (typically, at doses of 100 or 200 nM), “less than 10%”. Besides, the “GAPDH mRNA band intensity” value is listed as 6,996 in the assay with GAPDH mRNA (replicate 1) and 4,830 with GAPDH mRNA (replicate 2). The molecule also returned an ER/GAPDH mean in the assay on estrogen receptor mRNA (mean of replicates 1 and 2) of 0.63. Further, the ER/GAPDH was determined as 0.75 in the assay with estrogen receptor mRNA (replicate 1) and 0.5 with estrogen receptor mRNA (replicate 2). Further, the “Estrogen Receptor mRNA band intensity” value with estrogen receptor mRNA (replicate 1) is 5,288; in the assay with estrogen receptor mRNA (replicate 2), 2,418. For the same molecule, the activity at 30 µM in the assay on estrogen receptor mRNA (Homo sapiens, MCF7, read-out: ER/GAPDH % Control) was 17%.

With `CCCCN(C)C(=O)CCCCCCCNC(=O)Cc1c(-c2ccc(OC(C)=O)cc2)n(Cc2ccccc2)c2ccc(OC(C)=O)cc12` [MDL 104,401, 8-[[5-Acetoxy-1-benzyl-2-[(4-acetoxy)-phenyl]-1H-indol-3-yl]-acetylamino]-octanoic acid methyl-butyl-amide], in assay [1], the inhibition at 2 µM worked out at 120%, the inhibition at 5 µM stood at 92%, the inhibition at 10 µM is 59% and the inhibition at 20 µM amounted to 49%. The inhibition at 30 µM in assay [1] was 44%. Also, half-maximal inhibition on estrogen receptors (setting [2]) (IC50) was put at 28 µM.

With `CCCCN(C)C(=O)CCCCCCCNC(=O)Cc1cn(Cc2ccccc2)c2ccc(F)cc12` [MDL 104,822, 8-[[5-Fluoro-1-benzyl-1H-indol-3-yl]-acetylamino]-octanoic acid methyl-butyl-amide], the IC50 against estrogen receptors (setting [2]) stood at 12 µM.

In the case of `Cc1c(CC(=O)NCCCCCCC(=O)N(C)c2ccccc2)c2cc(O)ccc2n1C(=O)c1ccccc1` [MDL 103,005, 7-[[5-Hydroxy-1-benzoyl-2-methyl-1H-indol-3-yl]-acetylamino]-heptanoic acid methyl-phenyl-amide], the IC50 on estrogen receptors (setting [2]) was 27 µM. This IC50 lies about 2.2-fold higher than the previous one.

The molecule `CCCCN(C)C(=O)CCCCCCCNC(=O)Cc1c(C)n(C(=O)c2ccc(OC)cc2)c2ccc(O)cc12` [MDL 105,517, 8-[[5-Hydroxy-1-(4-methoxybenzoyl)-2-methyl-1H-indol-3-yl]-acetylamino]-octanoic acid methyl-butyl-amide] returned a half-inhibitory concentration (IC50) at estrogen receptors (setting [2]) of 16 µM.

On to `CCCCN(C)C(=O)CCCCCCNC(=O)Cc1c(-c2ccc(O)cc2)n(Cc2ccccc2)c2ccc(O)cc12` [MDL 103,623, 7-[[5-Hydroxy-1-benzyl-2-[(4-hydroxy)phenyl]-1H-indol-3-yl]-acetylamino]-heptanoic acid methyl butyl-amide], for which the half-maximal inhibitory concentration (IC50) on estrogen receptors (setting [2]) is 16 µM; on estrogen receptors (estrogen receptors in nuclear extracts, second of two separate experiments (after the slash)) it was 17 µM.

Molecule `CCCCN(C)C(=O)CCCCCNC(=O)Cc1c(-c2ccc(O)cc2)n(Cc2ccccc2)c2ccc(O)cc12` [MDL 104,982, 6-[[5-Hydroxy-1-benzyl-2-[(4-hydroxy)phenyl]-1H-indol-3-yl]-acetylamino]-hexanoic acid methyl-butyl-amide] registered an IC50 on estrogen receptors (setting [2]) of 20 µM. In other words, the double-digit micromolar range.

Molecule `CCCCN(C)C(=O)CCCCCCCNC(=O)Cc1cn(Cc2ccccc2)c2ccccc12` [MDL 103,948, 8-[[1-Benzyl-1H-indol-3-yl]-acetylamino]-octanoic acid methyl-butyl-amide] returned an IC50 at estrogen receptors (setting [3]) of 14 µM.

On to `CCN(CC)C(=O)CCCCCCCNC(=O)Cc1c(C)n(C(=O)c2ccc(Cl)cc2)c2ccc(O)cc12` [MDL 104,631, 8-[[5-Hydroxy-1-(4-chlorobenzoyl)-2-methyl-1H-indol-3-yl]-acetylamino]-octanoic acid diethyl-amide], for which the IC50 against estrogen receptors (setting [2]) is 16 µM.

Take `CCCCc1ccc(C(=O)n2c(C)c(CC(=O)NCCCCCCC(=O)N(CC)CC)c3cc(O)ccc32)cc1` [MDL 103,494, 7-[[5-Hydroxy-1-(4-butylbenzoyl)-2-methyl-1H-indol-3-yl]-acetylamino]-heptanoic acid diethyl-amide]: the IC50 at estrogen receptors (setting [3]) was determined as 28 µM.

Take `CCCCN(C)C(=O)CCCCCCNC(=O)Cc1c(C)n(CCCc2ccccc2)c2ccc(O)cc12` [MDL 104,261, 7-[[5-Hydroxy-1-(3-phenylpropyl)-2-methyl-1H-indol-3-yl]-acetylamino]-heptanoic acid methyl-butyl-amide]: the IC50 against estrogen receptors (setting [2]) stood at 23.5 µM.

At estrogen receptors (setting [2]), `CCCCN(C)C(=O)CCCCCNC(=O)Cc1c(C)n(C(=O)c2ccc(Cl)cc2)c2ccc(O)cc12` [MDL 105,643, 6-[[5-Hydroxy-1-(4-chlorobenzoyl)-2-methyl-1H-indol-3-yl]-acetylamino]-hexanoic acid methyl-butyl-amide] displayed a half-maximal inhibitory concentration (IC50) of 19 µM.

As for `CCCCNC(=O)CCCCCCCNC(=O)Cc1c(-c2ccc(O)cc2)n(Cc2ccccc2)c2ccc(O)cc12` [MDL 104,262, 8-[[5-Hydroxy-1-benzyl-2-[(4-hydroxy)phenyl]-1H-indol-3-yl]-acetylamino]-octanoic acid butyl-amide], the IC50 against estrogen receptors (setting [2]) was 25 µM.
